Measured values: ChEMBL document CHEMBL4706653, “Ultra-short lipopeptides against gram-positive bacteria while alleviating antimicrobial resistance” (Eur J Med Chem, 2021)
Converted amounts (≈) assume the structure as drawn. The source made the active and inactive calls. No cut-off for these calls is given here. Positions of bridges follow the written chain, without caps; N, C: chain ends. Non-standard residues stand in square brackets, D forms with d. Residues, ends and D or L forms follow the SMILES beside them. *: point of attachment. X1 = CC[C@H](C)CCCCC(=O)*; Dab = NCC[C@H](N)C(=O)O

Assays:
[1] = test system: Staphylococcus epidermidis; assay: Antimicrobial activity against Staphylococcus epidermidis ATCC 12228 after 18 hrs by broth microdilution method; assay type: functional
[2] = Toxicity in BALB/c mouse assessed as immobility at 20 to 80 mg/kg, ip administered as single dose measured within 30 mins; assay type: organism-based; conditions: in vivo, 0.5 h, dose 20-80 mg/kg
[3] = Binding affinity to LTA (unknown origin) assessed as bacterial killing at 2 times MIC preincubated for 1 hr followed by Staphylococcus aureus ATCC 25923 addition and measured after 2 hrs by colony counting method; conditions: time 3.0 hrs
Staphylococcus aureus [4] = assay: Antimicrobial activity against Staphylococcus aureus ATCC 25923 assessed as bacterial killing preincubated for 4 hrs followed by replating on MHB agar and measured after 24 hrs by time kill assay; assay type: functional, organism-based; conditions: time 28.0 hrs
Staphylococcus aureus [5] = assay: Antimicrobial activity against methicillin-resistant Staphylococcus aureus 113 after 18 hrs by broth microdilution method; assay type: functional
Cell membrane [6] = assay: Induction of membrane disruption in Staphylococcus aureus ATCC 25923 measured after 2 hrs by propidium iodide staining based confocal laser scanning microscopic analysis; assay type: subcellular
[7] = Toxicity in BALB/c mouse assessed as inflammatory cell infiltration in kidney at 80 mg/kg, ip administered as single dose measured after 5 days; assay type: organism-based; conditions: in vivo, 120 h, time 5 day
Cell membrane [8] = assay: Induction of cytoplasmic membrane disruption in Staphylococcus aureus ATCC 25923 measured for 15 mins by DiSC3-5 dye based fluorescence assay
Staphylococcus aureus [9] = assay: Antibiofilm activity against Staphylococcus aureus ATCC 25923 at 0.5 to 8 uM after 24 hrs by crystal violet staining based assay; assay type: functional, organism-based; conditions: dose 0.5-8 µM
Staphylococcus aureus [10] = assay: Antimicrobial activity against methicillin-resistant Staphylococcus aureus 75 after 18 hrs by broth microdilution method; assay type: functional
[11] = Toxicity in BALB/c mouse assessed as congestion in kidney at 40 mg/kg, ip administered as single dose measured after 5 days; assay type: organism-based; conditions: in vivo, 120 h, time 5 day
Staphylococcus aureus [12] = assay: Induction of nucleic acid leakage in Staphylococcus aureus ATCC 25923 at 4 times MIC; assay type: functional
Staphylococcus aureus [13] = assay: Antibiofilm activity against ciprofloxacin-resistant Staphylococcus aureus ATCC 25923 at 0.5 to 8 uM after 24 hrs by crystal violet staining based assay; assay type: functional, organism-based; conditions: dose 0.5-8 µM
[14] = Toxicity in BALB/c mouse assessed as eosinophilic mass in the renal tubular lumen at 80 mg/kg, ip administered as single dose measured after 5 days; assay type: organism-based; conditions: in vivo, 120 h, time 5 day
[15] = Toxicity in BALB/c mouse assessed as death at 20 to 80 mg/kg, ip administered as single dose measured within 30 mins; assay type: organism-based; conditions: in vivo, 0.5 h, dose 20-80 mg/kg
Staphylococcus aureus [16] = assay: Induction of reactive oxygen species generation in Staphylococcus aureus ATCC 25923 by […] dye based fluorescence assay; assay type: functional, organism-based
[17] = Toxicity in BALB/c mouse assessed as liver cell lysis at 80 mg/kg, ip administered as single dose measured after 5 days; assay type: organism-based; conditions: in vivo, 120 h, time 5 day
[18] = Toxicity in BALB/c mouse assessed as congestion in liver at 20 mg/kg, ip administered as single dose measured after 5 days; assay type: organism-based; conditions: in vivo, 120 h, time 5 day
[19] = Toxicity in BALB/c mouse assessed as swelling of renal tubular epithelial cells at 80 mg/kg, ip administered as single dose measured after 5 days; assay type: organism-based; conditions: in vivo, 120 h, time 5 day
Staphylococcus aureus [20] = assay: Antimicrobial activity against Staphylococcus aureus ATCC 25923 after 18 hrs by broth microdilution method; assay type: functional
Lipopolysaccharide (LPS) = assay: Binding affinity to LPS (unknown origin) assessed as bacterial killing at 2 times MIC preincubated for 1 hr followed by Staphylococcus aureus ATCC 25923 addition and measured after 2 hrs by colony counting method; conditions: time 3.0 hrs
Staphylococcus aureus [21] = assay: Antimicrobial activity against Staphylococcus aureus ATCC 29213 after 18 hrs by broth microdilution method; assay type: functional
[22] = test system: Staphylococcus epidermidis; assay: Antimicrobial activity against Staphylococcus epidermidis ATCC 12228 at 0.5 times MIC after 15 passages by broth microdilution method; assay type: functional, organism-based
Cell membrane [23] = assay: Induction of membrane disruption in Staphylococcus aureus ATCC 25923 assessed as PI-positive cells at 2 times MIC measured after 2 hrs by propidium iodide staining based flow cytometry relative to control
[24] = Toxicity in BALB/c mouse assessed as vacuoles in liver cytoplasm at 20 mg/kg, ip administered as single dose measured after 5 days; assay type: organism-based; conditions: in vivo, 120 h, time 5 day
[25] = Toxicity in BALB/c mouse assessed as inflammatory cell infiltration in liver at 20 mg/kg, ip administered as single dose measured after 5 days; assay type: organism-based; conditions: in vivo, 120 h, time 5 day
Staphylococcus aureus [26] = assay: Antimicrobial activity against Staphylococcus aureus ATCC 25923 at 0.5 times MIC after 15 passages by broth microdilution method; assay type: functional, organism-based
[27] = Toxicity in BALB/c mouse assessed as ruffled fur at 20 to 80 mg/kg, ip administered as single dose measured within 30 mins; assay type: organism-based; conditions: in vivo, 0.5 h, dose 20-80 mg/kg
[28] = Toxicity in BALB/c mouse assessed as death at 20 mg/kg, ip administered as single dose measured within 24 hrs; assay type: organism-based; conditions: in vivo
Cell membrane [29] = assay: Induction of membrane disruption in Staphylococcus aureus ATCC 25923 assessed as PI-positive cells at 4 times MIC measured after 2 hrs by propidium iodide staining based flow cytometry relative to control
Bacillus subtilis = assay: Antimicrobial activity against Bacillus subtilis ATCC 23857 after 18 hrs by broth microdilution method; assay type: functional

For `CC[C@H](C)CCCCC(=O)N[C@@H](CCN)C(=O)N[C@H](C(=O)N[C@@H](CCN)C(=O)N[C@H]1CCNC(=O)[C@H]([C@@H](C)O)NC(=O)[C@H](CCN)NC(=O)[C@H](CCN)NC(=O)[C@H](CC(C)C)NC(=O)[C@@H](Cc2ccccc2)NC(=O)[C@H](CCN)NC1=O)[C@@H](C)O` (X1-[Dab]T[Dab][Dab][Dab][dF]L[Dab][Dab]T; lactam 4-C), the MIC [1] was 8 µM (≈ 9.63 µg/mL), the Activity [2] was “Toxic” and the Activity [3] was “Active”. For the same molecule, the Activity (Staphylococcus aureus [4]) was “inactive”, the MIC (Staphylococcus aureus [5]) was 8 µM (≈ 9.63 µg/mL) and the Activity (Cell membrane [6]) was “inactive”. For the same molecule, the Activity [7] was “Toxic”, the Activity (Cell membrane [8]) was “inactive” and the Activity (Staphylococcus aureus [9]) was “Active”. For the same molecule, the MIC (Staphylococcus aureus [10]) was 8 µM (≈ 9.63 µg/mL), the Activity [11] was “Toxic” and the Activity (Staphylococcus aureus [12]) was “inactive”. For the same molecule, the Activity (Staphylococcus aureus [13]) was “Active”, the Activity [14] was “Toxic” and the Activity [15] was “Toxic”. The Activity (Staphylococcus aureus [16]) was “Active”, the Activity [17] was “Toxic” and the Activity [18] was “Toxic”. The Activity [19] was “Toxic”, the MIC (Staphylococcus aureus [20]) was 16 µM (≈ 19.3 µg/mL) and the Activity (Lipopolysaccharide (LPS)) was “Active”. For the same molecule, the MIC (Staphylococcus aureus [21]) was 16 µM (≈ 19.3 µg/mL), the Activity [22] was “Active” and the Activity (Cell membrane [23]) was 68%. The Activity [24] was “Toxic”, the Activity [25] was “Toxic” and the Activity (Staphylococcus aureus [26]) was “Active”. The Activity [27] was “Toxic”, the Activity [28] was “Toxic” and the Activity (Cell membrane [29]) was 84.8%. The MIC (Bacillus subtilis) was 8 µM (≈ 9.63 µg/mL).
